Here are results for 39 compounds from patent publication US20130116241A1, “NOVEL INHIBITOR COMPOUNDS OF PHOSPHODIESTERASE TYPE 10A” (AbbVie Inc., priority 2011, published 2013).

This experiment addresses human PDE10A (UniProt Q9Y233). The experiment is described as follows: Measurement of PDE activity (recombinant enzyme, HTRF cAMP kit). To be noted: Table 1, substrate 20 nM for PDE10, 60 minutes at 29 C, read-out: IC50. The experiment is classed as biochemical. Summed up:
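Recombinant human PDE10A (10–250 pM range across PDEs) with 20 nM cAMP substrate in 20 mM Tris-HCl pH 7.5, 10 mM MgCl2, 0.1% BSA, compound pre-mixed with enzyme. Ran 60 min at 29 °C. Remaining cAMP read by HTRF, converted to % of uninhibited activity, and IC50 fitted.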
(In TR-FRET formats the signal depends on donor and acceptor labels being close together.)

Where a name gives a salt, the structure may show the parent alone.

In general, IC50 refers to the concentration needed to halve the response being measured.

Sequence of human PDE10A (Q9Y233 290-1055 limits assumed): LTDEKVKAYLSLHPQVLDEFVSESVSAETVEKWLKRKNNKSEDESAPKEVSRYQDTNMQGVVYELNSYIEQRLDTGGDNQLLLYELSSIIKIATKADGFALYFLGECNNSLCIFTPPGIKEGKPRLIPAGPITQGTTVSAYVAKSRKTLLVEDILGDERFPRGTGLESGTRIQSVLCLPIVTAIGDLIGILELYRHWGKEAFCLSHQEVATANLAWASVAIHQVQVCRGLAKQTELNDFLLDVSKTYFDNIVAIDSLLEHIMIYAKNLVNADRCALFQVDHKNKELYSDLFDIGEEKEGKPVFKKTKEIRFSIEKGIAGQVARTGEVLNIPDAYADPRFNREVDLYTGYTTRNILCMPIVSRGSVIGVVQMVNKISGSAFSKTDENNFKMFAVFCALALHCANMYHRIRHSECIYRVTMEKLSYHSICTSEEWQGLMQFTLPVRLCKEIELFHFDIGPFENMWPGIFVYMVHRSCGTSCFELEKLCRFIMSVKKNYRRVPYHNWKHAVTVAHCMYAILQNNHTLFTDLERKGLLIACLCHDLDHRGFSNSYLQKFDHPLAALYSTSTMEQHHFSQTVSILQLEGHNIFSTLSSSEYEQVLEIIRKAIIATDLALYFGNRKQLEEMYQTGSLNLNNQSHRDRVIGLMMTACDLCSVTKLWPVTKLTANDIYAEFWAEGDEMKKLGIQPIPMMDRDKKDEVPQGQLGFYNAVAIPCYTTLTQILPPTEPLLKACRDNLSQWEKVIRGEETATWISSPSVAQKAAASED

As for `O=c1c2c(N3CCC(F)(F)CC3)cccc2cnn1CCc1cn2ccccc2n1` [Example 179, 8-(4,4-Difluoropiperidin-1-yl)-2-[2-(imidazo[1,2-a]pyridin-2-yl)ethyl]phthalazin-1(2H)-one], the IC50 lay in the range of 100 to 200 nM.

For the compound `O=c1c2c(N3CCCCC3)cccc2cnn1CCc1cn2ccccc2n1` [Example 181, 2-[2-(Imidazo[1,2-a]pyridin-2-yl)ethyl]-8-(piperidin-1-yl)phthalazin-1(2H)-one hydrochloride], the IC50 fell in the range of 200 to 500 nM.

`O=c1c2c(N3CCCOCC3)cccc2cnn1CCc1cn2ccccc2n1` [Example 190, 2-[2-(Imidazo[1,2-a]pyridin-2-yl)ethyl]-8-(1,4-oxazepan-4-yl)phthalazin-1(2H)-one hydrochloride]: the IC50 lay in the range of 100 to 200 nM.

Regarding `CC(C)(C)OC(=O)N1CC=C(c2cccc3cnn(CCc4cn5ccccc5n4)c(=O)c23)CC1` [Example 191, tert-Butyl 4-{3-[2-(imidazo[1,2-a]pyridin-2-yl)ethyl]-4-oxo-3,4-dihydrophthalazin-5-yl}-3,6-dihydropyridine-1(2H)-carboxylate], the IC50 is 200 to 500 nM.

As for `O=c1c2cccc(-c3ccncc3)c2cnn1CCc1ccc2ccccc2n1` [Example 192, 5-(Pyridin-4-yl)-2-[2-(quinolin-2-yl)ethyl]phthalazin-1(2H)-one hydrochloride], the IC50 is under 100 nM.

As to `O=c1c2cccc(-c3cncnc3)c2cnn1CCc1ccc2ccccc2n1` [Example 193, 5-(Pyrimidin-5-yl)-2-[2-(quinolin-2-yl)ethyl]phthalazin-1(2H)-one hydrochloride], the IC50 was under 100 nM.

In the case of `Cn1nccc1-c1cccc2c(=O)n(CCc3ccc4ccccc4n3)ncc12` [Example 194, 5-(1-Methyl-1H-pyrazol-5-yl)-2-[2-(quinolin-2-yl)ethyl]phthalazin-1(2H)-one], the IC50 is under 100 nM.

Take `O=c1c2cccc(N3CCS(=O)(=O)CC3)c2cnn1CCc1ccc2ccccc2n1` [Example 195, 5-(1,1-Dioxidothiomorpholin-4-yl)-2-[2-(quinolin-2-yl)ethyl]phthalazin-1(2H)-one]: the IC50 was 100 to 200 nM.

In the case of `O=c1c2cccc(-c3cccnc3)c2cnn1CCc1cn2ccccc2n1` [Example 196, 2-[2-(Imidazo[1,2-a]pyridin-2-yl)ethyl]-5-(pyridin-3-yl)phthalazin-1(2H)-one], the IC50 is under 100 nM.

As to `O=c1c2cccc(-c3cncnc3)c2cnn1CCc1cn2ccccc2n1` [Example 197, 2-[2-(Imidazo[1,2-a]pyridin-2-yl)ethyl]-5-(pyrimidin-5-yl)phthalazin-1(2H)-on], the IC50 is under 100 nM.

As to `O=c1c2cccc(N3CCOCC3)c2cnn1CCc1cn2ccccc2n1` [Example 198, 2-[2-(Imidazo[1,2-a]pyridin-2-yl)ethyl]-5-(morpholin-4-yl)phthalazin-1(2H)-one hydrochloride], the IC50 was under 100 nM.

As for `O=c1c2cccc(N3CC4COCC4C3)c2cnn1CCc1cn2ccccc2n1` (stereo not drawn) [Example 199, 2-[2-(Imidazo[1,2-a]pyridin-2-yl)ethyl]-5-(tetrahydro-1H-furo[3,4-c]pyrrol-5(3H)-yl)phthalazin-1(2H)-one hydrochloride], the IC50 is under 100 nM.

With `O=c1c2ccccc2c(-c2cncnc2)nn1CCc1cn2ccccc2n1` [Example 200, 2-[2-(Imidazo[1,2-a]pyridin-2-yl)ethyl]-4-(pyrimidin-5-yl)phthalazin-1(2H)-one], the IC50 was under 100 nM.

`O=c1c2ccccc2c(N2CCOCC2)nn1CCc1cn2ccccc2n1` [Example 201, 2-[2-(Imidazo[1,2-a]pyridin-2-yl)ethyl]-4-(morpholin-4-yl)phthalazin-1(2H)-one]: the IC50 is 200 to 500 nM.

Consider `O=c1c2c(-c3ccncc3O)csc2ccn1CCc1ccc2ccccc2n1` [Example 203, 3-(3-Hydroxypyridin-4-yl)-5-[2-(quinolin-2-yl)ethyl]thieno[3,2-c]pyridin-4(5H)-one hydrochloride], for which the IC50 was 200 to 500 nM.

Take `Cn1nccc1-c1csc2ccn(CCc3ccc4ccccc4n3)c(=O)c12` [Example 204, 3-(1-Methyl-1H-pyrazol-5-yl)-5-[2-(quinolin-2-yl)ethyl]thieno[3,2-c]pyridin-4(5)H-one hydrochloride]: the IC50 is under 100 nM.

As for `O=c1c2c(-c3ccncc3)csc2ccn1CCc1ccc2ccccc2n1` [Example 205, 3-(Pyridin-4-yl)-5-[2-(quinolin-2-yl)ethyl]thieno[3,2-c]pyridin-4(5H)-one hydrochloride], the IC50 is under 100 nM.

Regarding `O=c1c2c(-c3cncnc3)csc2ccn1CCc1ccc2ccccc2n1` [Example 206], the IC50 was under 100 nM.

Consider `O=C1Cc2ccc(-c3csc4ccn(CCc5ccc6ccccc6n5)c(=O)c34)cc2N1` [Example 207, 3-(2-Oxoindolin-6-yl)-5-[2-(quinolin-2-yl)ethyl]thieno[3,2-c]pyridin-4(5H)-one], for which the IC50 was under 100 nM.

For the compound `O=c1c2c(-c3cccc(O)c3)csc2ccn1CCc1ccc2ccccc2n1` [Example 208, 3-(3-Hydroxyphenyl)-5-[2-(quinolin-2-yl)ethyl]thieno[3,2-c]pyridin-4(5H)-one hydrochloride], the IC50 was under 100 nM.

For the compound `CCc1ccc(CCn2ccc3scc(-c4ccncc4)c3c2=O)nc1` [Example 209, 5-[2-(5-Ethylpyridin-2-yl)ethyl]-3-(pyridin-4-yl)thieno[3,2-c]pyridin-4(5H)-one hydrochloride], the IC50 lay in the range of 200 to 500 nM.

In the case of `O=c1c2c(-c3ccncc3)csc2ccn1CCc1cn2ccccc2n1` [Example 210, 5-[2-(Imidazo[1,2-a]pyridin-2-yl)ethyl]-3-(pyridin-4-yl)thieno[3,2-c]pyridin-4(5H)-one hydrochloride], the IC50 is under 100 nM.

As for `O=c1c2c(N3CCOCC3)csc2ccn1CCc1ccc2ccccc2n1` [Example 211, 3-(Morpholin-4-yl)-5-[2-(quinolin-2-yl)ethyl]thieno[3,2-c]pyridin-4(5H)-one hydrochloride], the IC50 fell in the range of 200 to 500 nM.

As to `O=c1c2c(C3=CCNCC3)csc2ccn1CCc1ccc2ccccc2n1` [Example 213, 5-(2-(Quinolin-2-yl)ethyl)-3-(1,2,3,6-tetrahydropyridin-4-yl)thieno[3,2-c]pyridin-4(5H)-one hydrochloride], the IC50 was in the range of 200 to 500 nM.

For the compound `O=c1c2c(C3CCNCC3)csc2ccn1CCc1ccc2ccccc2n1` [Example 215, 3-(Piperidin-4-yl)-5-[2-(quinolin-2-yl)ethyl]thieno[3,2-c]pyridin-4(5H)-one trifluoroacetate], the IC50 is 100 to 200 nM.

Consider `Cc1csc2c(-c3ccncc3)cn(CCc3ccc4ccccc4n3)c(=O)c12` [Example 216, 3-Methyl-7-(pyridin-4-yl)-5-(2-(quinolin-2-yl)ethyl)thieno[3,2-c]pyridin-4(5H)-one], for which the IC50 was under 100 nM.

`O=c1c2c(N[C@@H]3CCNC3)cccc2cnn1CCc1cn2ccccc2n1` [Example 219, 2-[2-(Imidazo[1,2-a]pyridin-2-yl)ethyl]-8-[(3R)-pyrrolidin-3-ylamino]phthalazin-1(2H)-one dihydrochloride]: the IC50 was under 100 nM.

With `O=c1c2c(-c3ccncc3)cccc2ccn1/C=C/c1ccc2ccccc2n1` [Example 221, (E)-8-(Pyridin-4-yl)-2-(2-(quinolin-2-yl)vinyl)isoquinolin-1(2H)-one], the half-maximal inhibitory concentration (IC50) is under 100 nM.

Regarding `O=c1c2c(-c3ccncc3)cccc2ccn1CCc1ccc2ccccc2n1` [Example 223, 8-(Pyridin-4-yl)-2-(2-quinolin-2-yl-ethyl)isoquinolin-1(2H)-one], the IC50 was under 100 nM.

Regarding `O=c1c2c(-c3ccncc3)cccc2cnn1/C=C/c1ccc2ccccc2n1` [Example 225], the IC50 is under 100 nM.

On to `O=c1c2c(-c3ccncc3)coc2ccn1CCc1ccc2ccccc2n1` [Example 228, 3-(Pyridin-4-yl)-5-(2-(quinolin-2-yl)ethyl)furo[3,2-c]pyridin-4(5H)-one hydrochloride], for which the IC50 was under 100 nM.

Take `O=c1c2c(-c3ccncc3)coc2ccn1CCc1nc2ccccc2[nH]1` [Example 229, 5-(2-(1H-Benzo[d]imidazol-2-yl)ethyl)-3-(pyridin-4-yl)furo[3,2-c]pyridin-4(5H)-one hydrochloride]: the IC50 was under 100 nM.

With `O=c1c2c(-c3ccncc3)coc2ccn1CCc1cn2ccccc2n1` [Example 230, 5-(2-(Imidazo[1,2-a]pyridin-2-yl)ethyl)-3-(pyridin-4-yl)furo[3,2-c]pyridin-4(5H)-one hydrochloride], the IC50 lay in the range of 100 to 200 nM.

Take `O=c1c2c(-c3cncnc3)coc2ccn1CCc1ccc2ccccc2n1` [Example 231, 3-(Pyrimidin-5-yl)-5-(2-(quinolin-2-yl)ethyl)furo[3,2-c]pyridin-4(5H)-one]: the IC50 was under 100 nM.

On to `C=C(Cn1ncc2nccc(-c3ccncc3)c2c1=O)c1ccc2ccccc2n1` [Example 234, 4-(Pyridin-4-yl)-6-(2-(quinolin-2-yl)allyl)pyrido[2,3-d]pyridazin-5(6H)-one], for which the IC50 was under 100 nM.

Take `O=c1c2c(-c3cccnc3)cccc2ccn1C1CC1c1ccc2ccccc2n1` (stereo not drawn) [Example 239, anti 8-(pyridin-3-yl)-2-(2-(quinolin-2-yl)cyclopropyl)isoquinolin-1(2H)-one hydrochloride]: the IC50 is under 100 nM.

As to `O=c1c2c(N3CCC[C@H](O)C3)cccc2ccn1C1CC1c1ccc2ccccc2n1` (stereo partly drawn) [Example 244, anti 8-((3S)-3-hydroxypiperidin-1-yl)-2-(2-(quinolin-2-yl)cyclopropyl)isoquinolin-1(2H)-one (2E)-but-2-enedioate], the IC50 was under 100 nM.

For `O=c1c2c(N3CCOCC3)cccc2ccn1C1CC1c1ccc2ccccc2n1` (stereo not drawn) [Example 246, anti 8-morpholino-2-(2-(quinolin-2-yl)cyclopropyl)isoquinolin-1(2H)-one], the IC50 is under 100 nM.

With `O=c1c2c(N3CC[C@H](O)C3)cccc2ccn1C1CC1c1ccc2ccccc2n1` (stereo partly drawn) [Example 249, anti 8-((3S)-3-hydroxypyrrolidin-1-yl)-2-(2-(quinolin-2-yl)cyclopropyl)isoquinolin-1(2H)-one di[(2E)-but-2-enedioate]], the IC50 is 200 to 500 nM.
